# Laboratory results published in patent US20240307477A1, “COMPOSITION FOR PREVENTING OR TREATING LIVER FIBROSIS INCLUDING SANGUISORBA OFFICINALIS EXTRACT AS ACTIVE INGREDIENT” (KOREA INSTITUTE OF SCIENCE AND TECHNOLOGY, priority 2023, published 2024).
# Test system: human immortalization hepatic stellate cells (human LX-2)
# Experiment: RT-qPCR of liver fibrosis-related gene expression in TGF-β-treated hepatic stellate cells
# Assay type: cell-based
# Details: LX-2 cells, 5 ng/mL TGF-β, 24 hours; extract 1, 5 or 10 μg/mL, ziyuglycoside 5 μM; RT-qPCR vs GAPDH
# Protocol: As hepatic stellate cells, human immortalization hepatic stellate cells (human LX-2) were given and used. The hepatic stellate cells were cultured in Dulbecco's modified Eagle's medium (DMEM; Invitrogen, US) containing 10% fetal bovine serum (FBS), penicillin (100 U/mL) and streptomycin ([…]) at 37° C. and in a 5% CO2 condition.
# To measure the hepatic anti-fibrosis effect of the Sanguisorba officinalis extract (1, 5 or 10 μg/mL) and ziyuglycoside (5 μM) in the LX-2 cells, a real time-quantitative polymerase chain reaction (RT-qPCR) was performed.
# First, the hepatic stellate cells were treated with each of the Sanguisorba officinalis extract (1, 5, or 10 μg/mL) and the ziyuglycoside (5 μM) along with 5 ng/mL of a liver fibrosis-inducing material TGF-β and cultured for 24 hours. Afterward, the cells were washed with PBS, total RNA was then extracted according to the manual of an RNA extraction kit (GeneAll RNA isolation kit, Korea), and cDNA was synthesized from the extracted RNA. PCR analysis was performed under user recommended cycling conditions of an analyzer (Applied Biosystems 7900 HT thermal cycler, Applied Biosystems), and to confirm the expression level of each mRNA, PCR was performed using the primers in Table 1 below, and the fold change value for the control was calculated using GAPDH as an endogenous control, and a relative expression level was compared.
Compound,ACTA2 gene expression increased by TGF-β treatment,COL1A1 gene expression increased by TGF-β treatment,TIMP1 gene expression increased by TGF-β treatment
C[C@@H]1CC[C@]2(C(=O)O)CC[C@]3(C)C(=CC[C@@H]4[C@@]5(C)CC[C@H](O[C@@H]6OC[C@H](O)[C@H](O)[C@H]6O)C(C)(C)[C@@H]5CC[C@]43C)[C@@H]2[C@]1(C)O [ziyuglycoside II],inhibited,inhibited,inhibited
C[C@@H]1CC[C@]2(C(=O)O[C@@H]3O[C@H](CO)[C@@H](O)[C@H](O)[C@H]3O)CC[C@]3(C)C(=CC[C@@H]4[C@@]5(C)CC[C@H](O[C@@H]6OC[C@H](O)[C@H](O)[C@H]6O)C(C)(C)[C@@H]5CC[C@]43C)[C@@H]2[C@]1(C)O [ziyuglycoside I],inhibited,inhibited,inhibited
ziyuglycoside,reduced,reduced,reduced
